Patent US12655116B2, “Substituted isophthalic acid diamides” (Bayer Aktiengesellschaft, priority 2020, dated 2026)

Experiments:
[1] = system: ABUTH; experiment: Pre-emergence herbicidal action against ABUTH; type: in vivo, Abutilon theophrasti; settings: for Pre-emergence action against ABUTH (herbicidal activity): 80 g/ha, scored visually after 3 weeks vs untreated controls (100% = plants have died, 0% = like control plants); for Pre-emergence action against ABUTH (herbicidal activity in percent): dosage 20 g/ha, scored visually after 3 weeks vs untreated controls, 100% = plants have died, 0% = like control plants
Outline: (§1)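 Herbicidal effect was assessed 3 weeks after treatment by visual comparison with untreated controls, 100% denoting dead plants. Aqueous WP or EC preparations had been applied at 600 to 800 l/ha with 0.2% wetting agent to the soil covering freshly sown seeds.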

[2] = system: ALOMY; experiment: Pre-emergence herbicidal action against ALOMY; type: in vivo, Alopecurus myosuroides; settings: 80 g/ha, pre-emergence, scored visually after 3 weeks vs untreated controls (100% = plants have died, 0% = like control plants)
Outline: as §1

[3] = system: AMARE; experiment: Pre-emergence herbicidal action against AMARE; type: in vivo, Amaranthus retroflexus
Outline: as §1

[4] = system: ECHCG; experiment: Pre-emergence herbicidal action against ECHCG; type: in vivo, Echinochloa crus-galli; settings: 80 g/ha
Outline: as §1

[5] = system: LOLRI; experiment: Pre-emergence herbicidal action against LOLRI; type: in vivo, Lolium rigidum; settings: 80 g/ha
Outline: as §1

[6] = system: MATIN; experiment: Pre-emergence herbicidal action against MATIN; type: in vivo, Matricaria inodora
Outline: as §1

[7] = system: PHBPU; experiment: Pre-emergence herbicidal action against PHBPU; type: in vivo, Pharbitis purpurea
Outline: as §1

[8] = system: POLCO; experiment: Pre-emergence herbicidal action against POLCO; type: in vivo, Polygonum convolvulus; settings: dosage 80 g/ha
Outline: as §1

[9] = system: SETVI; experiment: Pre-emergence herbicidal action against SETVI; type: in vivo, Setaria viridis; settings: dosage 80 g/ha
Outline: as §1

[10] = system: VERPE; experiment: Pre-emergence herbicidal action against VERPE; type: in vivo, Veronica persica; settings: dosage 80 g/ha
Outline: as §1

[11] = system: VIOTR; experiment: Pre-emergence herbicidal action against VIOTR; type: in vivo, Viola tricolor
Outline: as §1

[12] = system: DIGSA; experiment: Pre-emergence herbicidal action against DIGSA; type: in vivo, Digitaria sanguinalis
Outline: as §1

[13] = system: ALOMY; experiment: Post-emergence herbicidal action against ALOMY; type: in vivo, Alopecurus myosuroides; settings: dosage 20 g/ha, visual assessment about 3 weeks after treatment vs untreated controls
Outline: (§2)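 Post-emergence greenhouse test; one-leaf stage, 2–3 wk post-sowing, sandy loam. Foliar spray of WP/EC in water, 600–800 l/ha, +0.2% wetting agent. Visual % action at ~3 wk vs untreated (100% = plants dead).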

[14] = system: AMARE; experiment: Post-emergence herbicidal action against AMARE; type: in vivo, Amaranthus retroflexus; settings: 20 g/ha, visual assessment about 3 weeks after treatment, 100% = plants have died, 0% = like control plants
Outline: as §2

[15] = system: ECHCG; experiment: Post-emergence herbicidal action against ECHCG; type: in vivo, Echinochloa crus-galli
Outline: as §2

[16] = system: PHBPU; experiment: Post-emergence herbicidal action against PHBPU; type: in vivo, Pharbitis purpurea
Outline: as §2

[17] = system: SETVI; experiment: Post-emergence herbicidal action against SETVI; type: in vivo, Setaria viridis; settings: dosage 20 g/ha
Outline: as §2

[18] = system: ABUTH; experiment: Post-emergence herbicidal action against ABUTH; type: in vivo, Abutilon theophrasti; settings: visual assessment about 3 weeks after treatment vs untreated controls
Outline: as §2

[19] = system: MATIN; experiment: Post-emergence herbicidal action against MATIN; type: in vivo, Matricaria inodora; settings: dosage 20 g/ha
Outline: as §2

[20] = system: DIGSA; experiment: Post-emergence herbicidal action against DIGSA; type: in vivo, Digitaria sanguinalis; settings: 20 g/ha
Outline: as §2

[21] = 20 g/ha, scored visually after 3 weeks vs untreated controls, 100% = plants have died, 0% = like control plants
[22] = 80 g/ha, scored visually after 3 weeks vs untreated controls (100% = plants have died, 0% = like control plants)

SMILES	Pre-emergence action against ABUTH (herbicidal activity) [1] [%]	Pre-emergence action against ABUTH (herbicidal activity in percent) [1] [%]	Pre-emergence action against ALOMY (herbicidal activity) [2] [%]	Pre-emergence action against AMARE in % [3, 21] [%]	Pre-emergence action against AMARE in % [3, 22] [%]	Pre-emergence action against ECHCG in % [4] [%]	Pre-emergence action against LOLRI in % [5] [%]	Pre-emergence action against MATIN in % ([6]; dosage 20 g/ha) [%]	Pre-emergence action against MATIN in % ([6]; dosage 80 g/ha) [%]	Pre-emergence action against PHBPU in % ([7]; dosage 20 g/ha) [%]	Pre-emergence action against PHBPU in % ([7]; dosage 80 g/ha) [%]	Pre-emergence action against POLCO in % [8] [%]	Pre-emergence action against SETVI in % [9] [%]	Pre-emergence action against VERPE in % [10] [%]	Pre-emergence action against VIOTR in % ([11]; dosage 80 g/ha) [%]	Pre-emergence action against DIGSA in % ([12]; dosage 20 g/ha) [%]	Pre-emergence action against DIGSA in % ([12]; dosage 80 g/ha) [%]	Post-emergence action against ALOMY in % [13] [%]	Post-emergence action at 20 g/ha against AMARE in % [14] [%]	Post-emergence action against ECHCG in % ([15]; dosage 20 g/ha) [%]	also measured
COCCNC(=O)c1c(C(F)(F)F)ccc(C(=O)Nc2nnnn2C)c1Cl [Example 1-138]	100	100	90	100	100	100	90	90	100	80	90	90	100	90	100	100	100	90	90	90	Pre-emergence action against VIOTR in % ([11]; dosage 20 g/ha): 100%; Post-emergence action against ECHCG in % ([15]; dosage 5 g/ha): 80%; Post-emergence action against PHBPU in % ([16]; dosage 5 g/ha): 80%; Post-emergence action against PHBPU in % ([16]; dosage 20 g/ha): 90%; Post-emergence action against SETVI in % [17]: 80%
CCCNC(=O)c1c(C(F)F)ccc(C(=O)Nc2nnnn2CC)c1Cl [Example 2-154]	100	100	100	100	100	100	90	100	100	80	100	90	100	100	100	100	100	80	90	90	Post-emergence action against ABUTH in % ([18]; dosage 5 g/ha): 80%; Post-emergence action against ABUTH in % ([18]; dosage 20 g/ha): 90%; Post-emergence action against MATIN in % [19]: 80%; Post-emergence action against PHBPU in % ([16]; dosage 5 g/ha): 90%; Post-emergence action against PHBPU in % ([16]; dosage 20 g/ha): 90%; Post-emergence action against DIGSA [20]: 90%
